In brackets after ≈: the same amount, converted by molar mass.
Experiments:
[1] = Human Plasma Protein Binding (Test B); assay type: in vitro ADME; details: fraction unbound (fu)
Summary of the method: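 Human plasma protein binding run per the published Wernevik et al. (2020) integrated DMPK panel protocol. Values are fraction unbound (fu, % free); repeat runs averaged arithmetically.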

human RXFP1 = target: T1, human RXFP1 (Homo sapiens, UniProt Q9HBX9); assay: RXFP1 Hu cAMP (Test A); assay type: cell-based; set-up: expressed in transfected cells; host or cells: Jump-In T-REx CHO-K1 cells (ThermoFisher), induced with 10 ng/ml doxycycline for 24 h; details: RXFP1 Hu cAMP; for EC50: read-out: Test A EC50
T1 sequence (Q9HBX9 1-757): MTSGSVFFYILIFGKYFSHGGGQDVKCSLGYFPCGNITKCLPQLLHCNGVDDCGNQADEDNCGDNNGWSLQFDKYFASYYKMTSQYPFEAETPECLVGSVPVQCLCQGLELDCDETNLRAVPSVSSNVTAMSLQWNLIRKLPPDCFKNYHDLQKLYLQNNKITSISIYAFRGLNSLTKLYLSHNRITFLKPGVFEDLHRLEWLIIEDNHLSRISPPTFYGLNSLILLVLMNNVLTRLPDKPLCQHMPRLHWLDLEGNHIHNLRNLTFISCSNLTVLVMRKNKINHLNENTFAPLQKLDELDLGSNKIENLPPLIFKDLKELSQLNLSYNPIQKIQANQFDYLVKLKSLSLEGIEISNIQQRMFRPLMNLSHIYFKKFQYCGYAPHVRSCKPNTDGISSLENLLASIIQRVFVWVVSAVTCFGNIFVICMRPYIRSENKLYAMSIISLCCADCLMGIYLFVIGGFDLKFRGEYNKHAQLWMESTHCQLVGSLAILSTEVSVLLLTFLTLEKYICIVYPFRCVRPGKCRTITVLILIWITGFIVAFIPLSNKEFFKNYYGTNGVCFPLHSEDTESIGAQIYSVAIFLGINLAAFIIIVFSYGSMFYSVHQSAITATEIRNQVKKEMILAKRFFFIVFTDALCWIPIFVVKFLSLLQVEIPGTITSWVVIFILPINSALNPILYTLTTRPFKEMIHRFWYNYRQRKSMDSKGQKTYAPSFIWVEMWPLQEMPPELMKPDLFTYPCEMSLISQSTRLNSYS
Summary of the method: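 Doxycycline-induced (10 ng/ml, 24 h) CHO-K1 cells stably expressing human RXFP1; cAMP read by competitive HTRF after 2 h at room temperature, with 0.5 mM IBMX final.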

[2] = Rat Hepatocyte Stability (Test E); assay type: in vitro ADME; details: rat, hepatocytes, geometric mean if run multiple times
Summary of the method: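 Run per the published AstraZeneca-type rat hepatocyte stability protocol (Wernevik et al. panel). Values are mean intrinsic clearance, Clint in μl/min/10^6 cells; geometric mean used for repeated runs.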

[3] = Human Liver Microsomal Stability (Test C); assay type: in vitro ADME; details: human, liver microsomes
Summary of the method: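 Human liver microsome incubation per the Wernevik et al. integrated DMPK panel protocol. Intrinsic clearance reported as CLint in μl/min/mg protein, averaged arithmetically over repeat runs.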

[4] = Human Hepatocyte Stability (Test D); assay type: in vitro ADME; details: human, cryopreserved pooled human hepatocytes (LiverPool 10-Donor), geometric mean if run multiple times
Summary of the method: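 Pooled 10-donor cryopreserved human hepatocytes (≥80% viable) in L-15 medium at 0.25×10^6 cells per 0.25 mL well. Compound added from 100 μM acetonitrile solution; incubated at 37 °C with shaking, acetonitrile-quenched, LC-MS analysed. Clint (μL/min/10^6 cells) from ln % parent vs time slope; geometric mean of repeat runs.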

Solubility (Test F) = assay type: physicochemical; details: arithmetic mean if run multiple times
Experimental: The assay was conducted according to the Solubility Assay described in pages 164-167 of Wernevik, J. et al., “A Fully Integrated Assay Panel for Early Drug Metabolism and Pharmacokinetics Profiling”, Assay and Drug Development Technologies, 2020, 18(4), 157-179. Data are reported in Table 36 as solubility ([…]. Where the assay was run multiple times for the same compound, the arithmetic mean is reported.

[5] = cited from earlier work

Molecule: CCC1(CNC(=O)[C@H]2[C@@H]3CC[C@@H](C3)[C@H]2NC(=O)c2cc(O[C@H]3CC[C@@](C)(C(=O)O)CC3)c(F)cc2OC)CCC1 [Example 617]
- Test B Human Plasma Protein Binding (% free) [1]: 2.4 % free
- Test A Sinf (human RXFP1): 101%
- EC50 (human RXFP1): 50 nM
- hepatocyte CLint [2]: 13 µL/min/1e6 cells
- microsomal CLint [3]: 120 µL/min/mg
- hepatocyte CLint at 1 µM [4]: 12 µL/min/1e6 cells
- solubility (Solubility (Test F)): 810 µM (≈ 453 µg/mL)

Molecule: COc1cc(C#N)c(O[C@H]2CC[C@@](C)(C(=O)O)CC2)cc1C(=O)N[C@@H]1[C@H]2CC[C@H](C2)[C@@H]1C(=O)NCC(C)(C)C(F)(F)F [Example 624]
- Test B Human Plasma Protein Binding (% free) [1]: 12 % free
- Test A Sinf (human RXFP1): 113%
- EC50 (human RXFP1): 26 nM
- hepatocyte CLint [2]: 7.9 µL/min/1e6 cells
- microsomal CLint [3]: 16 µL/min/mg
- hepatocyte CLint at 1 µM [4]: 3.3 µL/min/1e6 cells
- solubility (Solubility (Test F)): 1000 µM (≈ 594 µg/mL)

Molecule: serelaxin
- significant blood pressure drop ([5]; approximately one third of the patients, after receiving serelaxin intravenously): > 40 mm Hg
- markers of cardiac, renal and hepatic damage and congestion ([5]; continuous intravenous administration to hospitalized patients): improved
- clearance from the patients' circulation ([5]; patients, positive effects rapidly disappeared once intravenous injection stopped): rapid clearance

— patent US11667602B2, “Compounds and their use” (AstraZeneca AB, priority 2020, dated 2023)
